The text below walks through data of patent US20050222234A1, “Mucin production inhibitor” (TAIHO PHARMACEUTICAL CO., LTD., priority 2004, published 2005).

One test has as its system NCI-H292 cells. Put plainly: Mucin production inhibitory action (EGF-stimulated, mucin ELISA of culture supernatant). In kind it is cell-based, human. The conditions noted are these: for Effect on production of mucin (in words): 1-10 μM, EGF-stimulated NCI-H292 cells. How it is done: Mucin Production Inhibitory Action
The test was carried out in accordance with a partially modified method of Takeyama et al. (Proc. Natl. Acad. Sci. USA, Vol. 96, P. 3081-3086, 1999). The specific procedure will be described as follows. NCI-H292 cells, which are human respiratory tract epithelial cell lines, were suspended in a 10% FCS-containing RPMI 1640-culture medium, and disseminated to a 12-well culture plate so that the cell concentration of each well was adjusted to 2×10^5 cell/well, followed by culturing for two days. Subsequently, the culture medium was changed to a 0.2% FCS-containing RPMI culture medium, followed by culturing for another two days. The thus-cultured cells were employed in the test. Each test drug and EGF (25 ng/mL) were added to each well, and the mucin level of the supernatant of the culture 48 hours after initiation of culturing was determined through the ELISA method. Percent inhibition (%) with regard to control value was calculated by supposing the difference produced by subtracting normal value from control value to be 100%. In this case, the control value is defined as the mucin amount in the culture supernatant to which only EGF was added, while the normal value is defined as the muchin amount in the culture supernatant containing neither of test drug and EGF. In addition, cilomilast (J. Pharmacol. Exp. Ther., Vol. 284, p. 420-426, 1998) and roflumilast (J. Pharmacol. Exp. Ther., Vol. 297, p. 267-279, 2001), which are typical phosphodiesterase (IV) inhibitors were also tested in a similar manner.

The next test has as its system Lewis Wistar rats. The experiment in a line: Inhibitory effect on hyperplasia of goblet cells in the respiratory tract epithelium (Sephadex-induced, PAS staining). The format is in vivo, rat. The conditions noted are these: oral, once per day for seven days; Sephadex i.v.; ratio of PAS-positive area. As for the experimental part: (Welch test), the value in each parenthesis represents percent inhibition (%)
The test was carried out in accordance with a partially modified method of Matsubara et al. (Int. Arch. Allergy Immunol., Vol. 116, p. 67-75, 1998). The specific procedure will be described as follows. To each of the 7-week old male Lewis Wistar rats, a Sephadex suspension (0.1. mg/mL/head) was intravenously administered (total three times: day 0, 2, and 5). Two days after the final administration, the rat was slaughtered by exsanguination under anesthetic with pentobarbital. The lung-tissue was extirpated from the rat and immersed in a neutral formalin buffer for fixation. […] The ratio of the PAS-stained positive area to the respiratory tract epithelium was calculated by use of an image analysis software (Winroof). Each test compound was suspended in 0.5% hydroxypropylmethyl cellulose (HPMC), and the suspension-was orally administered once per day for continuous seven days from the start of administration of Sephadex. In the Figure, numerical data are represented by mean value±standard deviation (each group: 11-12 samples).

Each structure is given as a SMILES string.

Broadly, the inhibition is the share of the control response that was lost under treatment.

Consider `COc1ccc([C@]2(C#N)CC[C@@H](C(=O)O)CC2)cc1OC1CCCC1` [Cilomilast, cilomilast, reference compound], for which, in the test with NCI-H292 cells, the “Effect on production of mucin (in words)” value is recorded as “promoted production of mucin”. As to `COc1ccc(-c2nc3cc(-n4cncn4)ccc3[nH]2)cc1OCC1CC1` [Compound 1], the “Effect on hyperplasia of goblet cells (in words, FIG. 1)” value in the test on Lewis Wistar rats is “inhibitory effect”. For the compound `CCC(CC)Oc1cc(-c2nc3cc(-n4cncn4)ccc3[nH]2)ccc1OC` [Compound 5], the inhibition at 1 µM with NCI-H292 cells (Homo sapiens, NCI-H292, 1 μM test drug, EGF 25 ng/mL, supernatant after 48 hours, read-out: Percent inhibition of mucin production (%)) is 15.4%. Moreover, the inhibition at 3 µM with NCI-H292 cells (Homo sapiens, NCI-H292, 3 μM test drug, EGF 25 ng/mL, supernatant after 48 hours, read-out: Percent inhibition of mucin production (%)) amounted to 40.2%. The inhibition at 10 µM in the test on NCI-H292 cells (Homo sapiens, NCI-H292, 10 μM test drug, EGF 25 ng/mL, supernatant after 48 hours, read-out: Percent inhibition of mucin production (%)) was determined as 65.9%. For `O=C(Nc1c(Cl)cncc1Cl)c1ccc(OC(F)F)c(OCC2CC2)c1` [Roflumilast, roflumilast, reference compound], the “Effect on production of mucin (in words)” value in the test on NCI-H292 cells was “promoted production of mucin”.
